{"source": "PubChem BioAssay AID248", "about": "(DTP/NCI, 2004)", "system": "L1210 leukemia ip in BDF1 mice, survival T/C", "assay": "NCI In Vivo Anticancer Drug Screen. Data for tumor model L1210 Leukemia (intraperitoneal) in B6D2F1 (BDF1) mice", "conditions": "endpoint: mean survival time, higher = longer survival", "summary_of_the_method": "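Each compound was tested against a transplantable tumor grown in mice. The endpoint was survival, with treated animals benchmarked against vehicle controls as a simple ratio.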", "key": {"[1]": {"conditions": "dose: 75.0 mg/kg/injection, schedule: Q01DX001 (ip), vehicle: saline"}, "[2]": {"conditions": "dose: 150.0 mg/kg/injection, schedule: Q01DX001 (ip), vehicle: saline"}}, "note": "Toxic doses and inconclusive results are not listed."}
{"smiles": "CC(=O)c1cc(CN(CCCl)CCCl)c(O)c(CN(CCCl)CCCl)c1O", "values": [{"measurement": "T/C", "setting": "dose: 3.1 mg/kg/injection, schedule: Q01DX009 (ip), vehicle: Klucel (hydroxypropylcellulose) (HPC)", "value": "111 % of control"}, {"measurement": "T/C", "setting": "dose: 5.5 mg/kg/injection, schedule: Q01DX009 (ip), vehicle: Klucel (hydroxypropylcellulose) (HPC)", "value": "114 % of control"}, {"measurement": "T/C", "setting": "dose: 6.2 mg/kg/injection, schedule: Q01DX009 (ip), vehicle: Klucel (hydroxypropylcellulose) (HPC)", "value": "111 % of control"}, {"measurement": "T/C", "setting": "dose: 8.3 mg/kg/injection, schedule: Q01DX009 (ip), vehicle: Klucel (hydroxypropylcellulose) (HPC)", "value": "120 % of control"}, {"measurement": "T/C", "setting": "dose: 15.0 mg/kg/injection, schedule: Q01DX001 (ip), vehicle: carboxymethylcellulose (CMC)", "value": "122 % of control"}, {"measurement": "T/C", "setting": "dose: 23.0 mg/kg/injection, schedule: Q01DX001 (ip), vehicle: carboxymethylcellulose (CMC)", "value": "122 % of control"}, {"measurement": "T/C", "setting": "dose: 30.0 mg/kg/injection, schedule: Q01DX009 (ip), vehicle: carboxymethylcellulose (CMC)", "value": "108 % of control"}, {"measurement": "T/C", "setting": "dose: 53.0 mg/kg/injection, schedule: Q01DX001 (ip), vehicle: carboxymethylcellulose (CMC)", "value": "122 % of control"}]}
{"smiles": "COc1ccc(CO/N=C2/CC(NOCc3ccc(OC)cc3)NC(=O)N2)cc1", "note": "(centres undefined)", "values": [{"measurement": "T/C", "setting": "dose: 100.0 mg/kg/injection, schedule: Q04DX003 (ip), vehicle: saline", "value": "90 % of control"}, {"measurement": "T/C", "setting": "dose: 200.0 mg/kg/injection, schedule: Q04DX003 (ip), vehicle: saline", "value": "90 % of control"}, {"measurement": "T/C", "setting": "dose: 400.0 mg/kg/injection, schedule: Q04DX003 (ip), vehicle: saline", "value": "86 % of control"}]}
{"smiles": "CCC(O)CNC1CCCCC1", "note": "(centres undefined)", "values": [{"measurement": "T/C", "setting": "[1]", "value": "98 % of control"}, {"measurement": "T/C", "setting": "[2]", "value": "98 % of control"}]}
{"smiles": "CCN(CC)CCNC(c1ccc(OC)cc1)C(Cl)(Cl)Cl", "note": "(centres undefined)", "values": [{"measurement": "T/C", "setting": "[1]", "value": "97 % of control"}, {"measurement": "T/C", "setting": "[2]", "value": "91 % of control"}]}
{"smiles": "O=C1NC(=O)C2C3C=CC(O3)C12", "note": "(centres undefined)", "values": [{"measurement": "T/C", "setting": "dose: 100.0 mg/kg/injection, schedule: Q01DX009 (ip), vehicle: saline", "value": "106 % of control"}, {"measurement": "T/C", "setting": "dose: 200.0 mg/kg/injection, schedule: Q01DX009 (ip), vehicle: saline", "value": "95 % of control"}, {"measurement": "T/C", "setting": "dose: 400.0 mg/kg/injection, schedule: Q01DX009 (ip), vehicle: saline", "value": "97 % of control"}]}
{"smiles": "CCC1CN2CCc3cc(OC)c(OC)cc3C2CC1CC1c2cc(OC)c(OC)cc2CCN1C(=O)C1CCCN1", "note": "(centres undefined)", "values": [{"measurement": "T/C", "setting": "dose: 50.0 mg/kg/injection, schedule: Q01DX001 (ip), vehicle: saline", "value": "95 % of control"}, {"measurement": "T/C", "setting": "dose: 100.0 mg/kg/injection, schedule: Q01DX001 (ip), vehicle: saline", "value": "111 % of control"}, {"measurement": "T/C", "setting": "dose: 200.0 mg/kg/injection, schedule: Q01DX001 (ip), vehicle: saline", "value": "95 % of control"}]}
{"smiles": "CN(Cc1cnc2nc(N)nc(N)c2n1)c1ccc(C(=O)NC(CCC(=O)OC(C)(C)C)C(=O)OC(C)(C)C)cc1", "note": "(centres undefined)", "values": [{"measurement": "T/C", "setting": "dose: 25.0 mg/kg/injection, schedule: Q01DX009 (ip), vehicle: Klucel (hydroxypropylcellulose) (HPC)", "value": "124 % of control"}, {"measurement": "T/C", "setting": "dose: 50.0 mg/kg/injection, schedule: Q01DX009 (ip), vehicle: Klucel (hydroxypropylcellulose) (HPC)", "value": "88 % of control"}, {"measurement": "T/C", "setting": "dose: 100.0 mg/kg/injection, schedule: Q04DX003 (ip), vehicle: Klucel (hydroxypropylcellulose) (HPC)", "value": "159 % of control"}]}
